Data on seven molecules can be found in publication PMC12734683 (Chemistry (Weinheim an Der Bergstrasse, Germany), 2025).

Usually IC50 stands for the point on the concentration scale where inhibition reaches its midpoint.

The subject of assay [1] is d(5′‐CGCGAATTCGCG‐3′)2 (DNA, duplex) CGCGAATTCGCG
Put plainly: ethidium bromide displacement fluorescence quenching, double-log plot. As to conditions: 100 mM phosphate (cation not given); pH 7.0, 298 K; 20 μM DNA, 5.2 μM ethidium bromide displaced; apparent.

Assay [2] has the same test system. Put plainly: 1H NMR titration. As to conditions: 100 mM phosphate (cation not given), H2O:D2O 9:1, pH 7.0, 298 K, r = 0.5-2.
In another assay the test system is NIH-3T3. The experiment in a line: Cell growth assay (IncuCyte Zoom), cytotoxicity to normal fibroblasts. In kind it is cell-based, mouse. As to conditions: NIHT‐3T3 normal fibroblasts. The method, then:
(§1) The human breast adenocarcinoma cell line MCF-7 and the mouse embryonic fibroblast cell line NIH-3T3 were cultured in high- glucose Dulbecco’s modified Eagle’s medium (DMEM) supplemented with 10% fetal bovine serum and 1% penicillin/ streptomycin. The human ovarian cancer cell line A2780 and its cisplatin resistant derivative (A2780cis-res) were maintained in RPMI-1640 medium supplemented with 10% fetal bovine serum and 1% penicillin/streptomycin. All cell lines were routinely passaged every 2 – 3 days, and incubated at 37 °C in a humidified atmosphere containing 5% CO2.
(§2) Cell growth and the cytotoxic effects of the complexes were monitored using the IncuCyte Zoom system and software(Essen BioScience, Hertfordshire, United Kingdom), as previously described^84. The IC50 values of cisplatin and of the complexes were determined by fitting a log(concentration) versus normalized response curve using GraphPad Prism, version 8.01.

A further assay has as its system A2780cis‐res. Put plainly: Cell growth assay (IncuCyte Zoom), cytotoxicity. In kind it is cell-based, human. As to the method:
as §1, §2

The subject of another assay is MCF‐7. The experiment in a line: Cell growth assay (IncuCyte Zoom), cytotoxicity. In kind it is cell-based, human. The method, then: as §1, §2
The subject of the next assay is A2780. Put plainly: Cell growth assay (IncuCyte Zoom), cytotoxicity. In kind it is cell-based, human. The method, then:
as §1, §2

Turning to `Cc1ccc(C(C)C)cc1.Cc1ccc(C(C)C)cc1.[Ru+2].[Ru+2].[c-]1cccc2ccc3cccnc3c12.c1cc(-c2ccncc2)ccn1.c1cnc2c(c1)ccc1cccnc12`, the K b in assay [1] is reported as 5.59 ± 0.21 × 10^3 M^-1. The binding entry in assay [2] (minor-groove intercalation) was “yes”.
In the case of `Cc1ccc(C(C)C)cc1.Cc1ccc(C(C)C)cc1.[Ru+2].[Ru+2].[c-]1cccc2ccc3cccnc3c12.[c-]1cccc2ccc3cccnc3c12.c1cc(CCc2ccncc2)ccn1`, the K b in assay [1] was 298.4 ± 4.3 × 10^3 M^-1.
In the case of `Cc1ccc(C(C)C)cc1.Cc1ccc(C(C)C)cc1.[Ru+2].[Ru+2].[c-]1cccc2ccc3cccnc3c12.[c-]1cccc2ccc3cccnc3c12.c1cc(-c2ccncc2)ccn1`, in assay [1], the K b is listed as 807.6 ± 19.9 × 10^3 M^-1.
Take `Cc1ccc(C(C)C)cc1.Cc1ccc(C(C)C)cc1.[Ru+2].[Ru+2].[c-]1cccc2ccc3cccnc3c12.c1cc(CCCc2ccncc2)ccn1.c1cnc2c(c1)ccc1cccnc12`: the K b in assay [1] was 6.70 ± 0.58 × 10^3 M^-1. Also, in assay [2] (groove binding), the binding result is listed as “yes”.
Turning to `Cc1ccc(C(C)C)cc1.Cc1ccc(C(C)C)cc1.[Ru+2].[Ru+2].[c-]1cccc2ccc3cccnc3c12.c1cc(CCc2ccncc2)ccn1.c1cnc2c(c1)ccc1cccnc12`, the K b in assay [1] is given as 28.51 ± 0.97 × 10^3 M^-1. For the same molecule, the binding result in assay [2] (groove binding at duplex ends) is given as “yes”.
As for `N.N.[Cl][Pt][Cl]` [cisplatin, reference compound], the IC50 in the assay with NIH-3T3 was 3.02 ± 0.36 µM; in the assay with A2780cis‐res (A2780cis‐res cells) it was 18.4 ± 1.59 µM; in the assay with MCF‐7 (MCF‐7 cells), 14.6 ± 1.25 µM; in the assay with A2780 (A2780 cells) it was 2.54 ± 0.11 µM. For the same molecule, the “Resistant factor IC50 (A2780cisR)/IC50(A2780)” value in the assay with A2780cis‐res was 7.3. The “Selectivity index IC50(NIHT‐3T3)/IC50(A2780cis‐res)” value in the assay with A2780cis‐res (third of three values in the cell) stood at 0.2. The “Selectivity index IC50(NIHT‐3T3)/IC50(MCF‐7)” value in the assay on MCF‐7 (first of three values in the cell) was 1.2. Moreover, the “Selectivity index IC50(NIHT‐3T3)/IC50(A2780)” value with A2780 stood at 0.2.
As to `Cc1ccc(C(C)C)cc1.Cc1ccc(C(C)C)cc1.[Ru+2].[Ru+2].[c-]1cccc2ccc3cccnc3c12.[c-]1cccc2ccc3cccnc3c12.c1cc(CCCc2ccncc2)ccn1`, the K b in assay [1] is given as 602.8 ± 76.1 × 10^3 M^-1.
